Assays:
Experiment in all cases: In vitro cytotoxicity against human cancer cell lines
Settings in all cases: read-out: In vitro cytotoxicities, IC50
MCF (breast cancer) = tested on: MCF (breast cancer)
SK-OV3 (ovarian cancer) = tested on: SK-OV3 (ovarian cancer)
A-431 (vulvar cancer) = tested on: A-431 (vulvar cancer)
MES-SA (uterine cancer) = tested on: MES-SA (uterine cancer)

For `N.N.O=C([O-])C1(C(=O)[O-])CCC1.[Pt+2]` [Carboplatin, carboplatin], the IC50 (MCF (breast cancer)) was 48 µM, the IC50 (SK-OV3 (ovarian cancer)) was 76.5 µM and the IC50 (A-431 (vulvar cancer)) was 45.9 µM. For the same molecule, the IC50 (MES-SA (uterine cancer)) was 48 µM.

— patent US8030506B2, “Tumor selective and biodegradable cyclotriphosphazene-platinum(II) conjugate anticancer agent, and preparation method thereof” (Nanohybrid Co., Ltd, priority 2007, dated 2011)
